Experimental data published in ChEMBL document CHEMBL5029181, “Synthesis and evaluation of potent novel inhibitors of human sulfide:quinone oxidoreductase” (Bioorg Med Chem Lett, 2021).
Converted amounts (≈) assume the structure as drawn.

What was measured:
[1] = target: Sulfide:quinone oxidoreductase, mitochondrial (Homo sapiens, UniProt Q9Y6N5); test: Inhibition of human SQOR
[2] = Half life in mouse at 10 mg/kg, ip; format: ADME, organism-based; conditions: in vivo
[3] = Protein binding in mouse plasma; format: ADME, cell-free; conditions: read-out: PPB (converted)
[4] = AUClast in mouse at 10 mg/kg, ip; format: ADME, organism-based; design: time 0 - last, route intraperitoneal, dose 10 mg/kg; conditions: in vivo
[5] = Aqueous solubility of the compound at pH 7; conditions: buffer
[6] = Permeability of the compound from basolateral to apical side in human Caco-2 cells; format: ADME, cell-based; conditions: read-out: permeability
[7] = Permeability of the compound from apical to basolateral side in human Caco-2 cells; format: ADME, cell-based; conditions: read-out: permeability

Sequence of Sulfide:quinone oxidoreductase, mitochondrial (Q9Y6N5 whole entry): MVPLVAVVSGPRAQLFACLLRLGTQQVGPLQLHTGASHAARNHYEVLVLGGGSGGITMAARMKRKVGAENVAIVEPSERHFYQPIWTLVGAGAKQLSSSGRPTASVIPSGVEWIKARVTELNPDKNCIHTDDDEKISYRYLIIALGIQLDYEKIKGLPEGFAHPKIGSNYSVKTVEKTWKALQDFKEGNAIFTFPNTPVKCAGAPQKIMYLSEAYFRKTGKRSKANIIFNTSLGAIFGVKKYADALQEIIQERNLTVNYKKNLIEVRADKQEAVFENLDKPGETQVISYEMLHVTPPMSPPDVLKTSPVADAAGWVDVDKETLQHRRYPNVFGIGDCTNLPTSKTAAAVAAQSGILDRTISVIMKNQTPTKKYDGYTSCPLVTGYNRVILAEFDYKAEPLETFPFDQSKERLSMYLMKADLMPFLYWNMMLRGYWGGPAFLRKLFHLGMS

Structure (SMILES)	IC50 [1]	other results
COc1nc(-c2ccccc2)cc(-c2ccc(Cl)cc2Cl)c1C#N	> 100000 nM	
COc1nc(-c2ccccc2)cc(-c2ccncc2)c1C#N	541 nM	
COc1nc(-c2ccncc2)cc(-c2ccc(F)cc2)c1C#N	17400 nM	
COc1nc(-c2ccccc2)cc(-c2ccc(F)cc2)c1C#N	25 nM	
COc1ccc(-c2cc(-c3ccc(F)cc3)c(C#N)c(OC)n2)cc1	1360 nM	
COc1cccc(-c2cc(-c3ccc(F)cc3)c(C#N)c(OC)n2)c1	108 nM	
Cc1cccnc1-c1cc(-c2ccc(F)cc2)c(C#N)c(OCc2cccnc2)n1	36 nM	
C=CCOc1nc(-c2ccccn2)cc(-c2ccc(F)cc2)c1C#N	5.5 nM	
COCCOc1nc(-c2ccccc2)cc(-c2ccc(F)cc2)c1C#N	123 nM	
COc1nc(-c2ccccc2)cc(-c2ccccc2)c1C#N	53 nM	
CCSc1nc(-c2ccccc2)cc(-c2ccccc2)c1C#N	132 nM	
COc1nc(-c2ccccn2)cc(-c2ccc(F)cc2)c1C(N)=O	16200 nM	
COc1nc(-c2cccnc2)cc(-c2ccc(F)cc2)c1C#N	213 nM	
COc1nc(-c2ccccn2)cc(-c2ccc(F)cc2)c1C#N	14 nM	
COc1nc(-c2ccccn2)cc(C(C)(C)C)c1C#N	850 nM	
COc1nc(C(C)(C)C)cc(-c2ccc(F)cc2)c1C#N	153 nM	
COc1ccccc1-c1cc(-c2ccc(F)cc2)c(C#N)c(OC)n1	75 nM	
N#Cc1c(-c2ccccc2)cc(-c2ccccc2)nc1OCc1ccccc1	100 nM	
COc1nc(-c2ncccc2C)cc(-c2ccc(N)cc2)c1C#N		half-life [2]: 1.13 h; fraction unbound [3]: 0.022; AUC(0-t) [4]: 1080 ng·h/mL
COc1nc2c(c(-c3ccccc3)c1C#N)Cc1ccccc1-2	2.1 nM	
COc1nc(-c2ncccc2C)cc(-c2ccc(F)cc2)c1C#N	8.7 nM	solubility [5]: 0.013 µM (≈ 4.15 ng/mL); half-life [2]: 5.96 h; fraction unbound [3]: 0.0036; Papp B→A [6]: 0.769 ×10⁻⁶ cm/s; AUC(0-t) [4]: 42 ng·h/mL; Papp A→B [7]: 0.455 ×10⁻⁶ cm/s
COc1nc(-c2ccccc2)cc(-c2ccc(Cl)cc2)c1C#N	252 nM	
